Data on 30 molecules can be found in patent publication US20220073470A1, “INHIBITORS OF CGAS ACTIVITY AS THERAPEUTIC AGENTS” (BELLBROOK LABS, LLC, priority 2019, published 2022).

Like-named read-outs stand apart in the source and are kept apart here.

The experiment addresses T1, full-length human cGAS (Homo sapiens, UniProt Q8N884).
T1 construct: The cGAS assay was used to screen 100,000 compounds with full-length human cGAS; 6xHis; made in house
Briefly: cGAS enzymatic assay (FP readout), inhibition of cGAS. The format is biochemical. As for the experimental part: Some exemplary compounds of the disclosure were tested for inhibition of cGAS (30 nM). The results are provided in Table 1 where “A” indicates an IC50 of less than 100 nM, “B” indicates an IC50 of greater than 100 nM and less than 500 nM, “C” indicates an IC50 of greater than 500 nM and less than 1 μM, “D” indicates an IC50 of greater than 1 μM and less than 10 μM, and “E” indicates an IC50 of greater than 10 μM.
A homogenous cGAS enzymatic assay was developed with fluorescence polarization (FP) and time-resolved Forster resonance energy transfer (TR-FRET) readouts (FIG. 2A-D). The cGAS assay was used to screen 100,000 compounds with full-length human cGAS (FIG. 2E), resulting in the identification of novel chemotypes, two of which are further developed in a structure-driven hit-to-lead study (Table 3, below). The assay performance was robust, as indicated by respective Z and Z′ values of 0.59 and 0.63 in the screen; compounds with polarization values greater than three SDs from the mean were considered hits; a scatterplot from 10 plates (3,200 compounds) is shown in FIG. 2D.
Potency and MOA studies, including Mn^2+ sensitivity, are performed using the cGAS enzymatic assay. Dose response experiments are used to determine IC50 values under basal conditions (5 mM MgCl2, 100 μM ATP/GTP), and with the addition of physiological levels of Mn (0.2 mM) using human and mouse cGAS. Ligand optimization is driven by potency with the human enzyme; potency with mouse cGAS informs selection of an appropriate disease model for efficacy studies. Competition with ATP and GTP is assessed by comparing basal IC50 values to those in the presence of saturating ATP or GTP, and subsequently confirmed by measuring velocity vs. substrate at varying ATP or GTP levels. Inhibitor residence times (1/koff) are used as a key parameter for prioritizing compounds and driving SAR, because a longer residence time often results from an allosteric mechanism, and can also correlate with improved cellular activity. The cGAS enzymatic assay is used with the jump dilution method to measure residence times (inhibitor dissociation rates), as described for kinases using the very similar ADP assay. Biophysical methods, including SPR and TSAn, are used as orthologous methods for residence time measurements and kd estimates.

Setting [1] is: cGAS (30 nM), no Mn2+, read-out: Inhibition cGAS (IC50 class).
[2] abbreviates: cGAS (30 nM), with Mn2+, read-out: Inhibition cGAS + Mn^2+ (IC50 class).

T1 sequence (Q8N884 whole entry): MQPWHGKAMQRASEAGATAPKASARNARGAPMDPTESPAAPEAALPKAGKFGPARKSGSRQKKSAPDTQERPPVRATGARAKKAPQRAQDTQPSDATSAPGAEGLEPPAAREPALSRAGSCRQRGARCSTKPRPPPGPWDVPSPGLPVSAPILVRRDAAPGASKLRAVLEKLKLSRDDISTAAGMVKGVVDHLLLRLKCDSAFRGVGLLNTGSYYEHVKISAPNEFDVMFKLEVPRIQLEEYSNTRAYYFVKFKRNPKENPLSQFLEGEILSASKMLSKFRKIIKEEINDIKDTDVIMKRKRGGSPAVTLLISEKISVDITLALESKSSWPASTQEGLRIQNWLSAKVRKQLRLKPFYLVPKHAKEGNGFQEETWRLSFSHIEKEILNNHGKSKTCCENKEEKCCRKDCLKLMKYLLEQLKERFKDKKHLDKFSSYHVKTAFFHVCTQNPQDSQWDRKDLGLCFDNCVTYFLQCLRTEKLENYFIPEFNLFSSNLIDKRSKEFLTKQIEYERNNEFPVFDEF

With `O=C(O)CNc1nc(-c2ccccc2)nc2ccccc12` [Compound 2, (2-phenylquinazolin-4-yl)glycine], the IC50 – broadly, the midpoint of a concentration-inhibition curve – is, setting by setting: under setting [1], over 10 µM; under setting [2], over 10 µM.
For `COc1ccccc1CC(=O)Nc1cccc(C(=O)Nc2ccccc2C(=O)O)c1` [Compound 30, 2-(3-(2-(2-methoxyphenyl)acetamido)benzamido)benzoic acid], the IC50 under setting [1] is over 10 µM.
Still for that read-out and setting: as for `Nc1cc(-n2ccnc2)c2ccc(Cl)cc2n1` [Compound 19, 7-chloro-4-(1H-imidazol-1-yl)quinolin-2-amine], the figure is 0.5 to 1 µM.
As to `Clc1ccc2c(-n3ccnc3)ncnc2c1` [Compound 5, 7-chloro-4-(1H-imidazol-1-yl)quinazoline], the IC50 was over 10 µM under setting [1] and over 10 µM under setting [2].
On to `COc1ccc(CC(=O)Nc2cccc(C(=O)Nc3ccccc3C(=O)O)c2)cc1` [Compound 29, 2-(3-(2-(4-methoxyphenyl)acetamido)benzamido)benzoic acid], for which the half-maximal inhibitory concentration (IC50) by setting is: under setting [1], over 10 µM; under setting [2], over 10 µM.
As for `O=C(O)[C@@H](Cc1ccccc1)Nc1ncnc2c1CCCC2` [Compound 32, (5,6,7,8-tetrahydroquinazolin-4-yl)-D-phenylalanine], the IC50 was over 10 µM under setting [1] and over 10 µM under setting [2].
Consider `O=C(Nc1ccccc1C(=O)O)c1ccc(NC(=O)c2ccccc2Br)cc1` [Compound 28, 2-(4-(2-bromobenzamido)benzamido)benzoic acid], for which the IC50 is, setting by setting: under setting [1], over 10 µM; under setting [2], over 10 µM.
`COc1ccc2nccc(-n3ccnc3)c2c1` [Compound 3, 4-(1H-imidazol-1-yl)-6-methoxyquinoline]: the IC50 by setting is: under setting [1], over 10 µM; under setting [2], 1 to 10 µM.
For `CCOc1cc2c(-n3ccnc3)ccnc2cc1Cl` [Compound 23, 7-chloro-6-ethoxy-4-(1H-imidazol-1-yl)quinolone], the IC50 by setting is: under setting [1], 0.5 to 1 µM; under setting [2], 0.1 to 0.5 µM.
For the molecule `O=C(Cc1ccccc1)Nc1ccc(C(=O)Nc2ccc(C(=O)O)cc2)cc1` [Compound 26, 4-(4-(2-phenylacetamido)benzamido)benzoic acid], the half-maximal inhibitory concentration (IC50) under setting [1] was over 10 µM and the 50% inhibitory concentration (IC50) under setting [2] is over 10 µM.
With `COc1cc2c(-n3ccnc3)ccnc2cc1Br` [Compound 22, 7-bromo-4-(1H-imidazol-1-yl)-6-methoxyquinoline], the IC50 was 0.1 to 0.5 µM under setting [1] and under 0.1 µM under setting [2].
On the same counts, the results for `Cc1cc2c(-n3ccnc3)ccnc2cc1Cl` [Compound 16, 7-chloro-4-(1H-imidazol-1-yl)-6-methylquinoline] are 1 to 10 µM and 0.5 to 1 µM.
Consider `Nc1ccc2nccc(-n3ccnc3)c2c1` [Compound 11, 4-(1H-imidazol-1-yl)quinolin-6-amine], for which the 50% inhibitory concentration (IC50) by setting is: under setting [1], over 10 µM; under setting [2], 1 to 10 µM.
In the case of `O=C(Nc1ccc(C(=O)Nc2ccccc2C(=O)O)cc1)c1ccc(I)cc1` [Compound 27, 2-(4-(4-iodobenzamido)benzamido)benzoic acid], the concentration for half-maximal inhibition (IC50) is, setting by setting: under setting [1], over 10 µM; under setting [2], over 10 µM.
`Clc1ccc2c(-n3ccnc3)ccnc2c1` [Compound 1, 7-chloro-4-(1H-imidazol-1-yl)quinolone]: the IC50 (5 mM Mg2+, 0.2 mM Mn2+, read-out: IC50 (5 mM Mg^2+, 0.2 mM Mn^2+)) stood at 0.79 µM; the IC50 (5 mM Mg2+, no Mn2+, read-out: IC50 (5 mM Mg^2+)) was determined as 5.4 µM; the IC50 under setting [1] was in the range of 1 to 10 µM; the IC50 under setting [2] was in the range of 0.1 to 0.5 µM.
As for `c1ccc(-c2ccc3nccc(-n4ccnc4)c3c2)cc1` [Compound 10, 4-(1H-imidazol-1-yl)-6-phenylquinoline], the IC50 under setting [2] was in the range of 1 to 10 µM.
With `COc1ccc2c(-n3ccnc3)ccnc2c1` [Compound 6, 4-(1H-imidazol-1-yl)-7-methoxyquinoline], the half-maximal inhibitory concentration (IC50) reads like this: under setting [1], over 10 µM; under setting [2], 1 to 10 µM.
On to `Cc1cc(-n2ccnc2)c2ccc(Cl)cc2n1` [Compound 18, 7-chloro-4-(1H-imidazol-1-yl)-2-methylquinoline], for which the IC50 reads like this: under setting [1], 0.5 to 1 µM; under setting [2], 0.1 to 0.5 µM.
As to `COc1cc2c(-n3ccnc3)c(C(=O)O)cnc2cc1Cl` [Compound 15, 7-chloro-4-(1H-imidazol-1-yl)-6-methoxyquinoline-3-carboxylic acid], the IC50 is 0.1 to 0.5 µM under setting [1] and under 0.1 µM under setting [2].
Take `O=C(NCc1ccccc1)c1nc2[nH]c3c(c(=O)n2n1)CCC3` [Compound 31, N-benzyl-8-oxo-5,6,7,8-tetrahydro-4H-cyclopenta[d][1,2,4]triazolo[1,5-a]pyrimidine-2-carboxamide]: under setting [1], the IC50 was over 10 µM.
On to `Clc1ccc2c(-n3ccnc3)c(-c3ccccc3)cnc2c1` [Compound 13, 7-chloro-4-(1H-imidazol-1-yl)-3-phenylquinoline], for which the IC50 lay in the range of 0.5 to 1 µM under setting [1] and 0.1 to 0.5 µM under setting [2].
Regarding `O=C(Cc1ccccc1)Nc1ccc(C(=O)Nc2ccccc2C(=O)O)cc1` [Compound 25, 2-(4-(2-phenylacetamido)benzamido)benzoic acid], the IC50 is, setting by setting: under setting [1], over 10 µM; under setting [2], over 10 µM.
For the molecule `Cc1ccc(S(=O)(=O)Nc2ccc(C(=O)Nc3ccncc3)cc2)cc1` [Compound 24, 4-((4-methylphenyl)sulfonamido)-N-(pyridin-4-yl)benzamide], under setting [1], the IC50 is over 10 µM.
In the case of `COc1cc2c(N3CCC[C@H]3C(=O)O)nc(-c3ccccc3)nc2cc1Cl` [Compound 17, (7-chloro-6-methoxy-2-phenylquinazolin-4-yl)-L-proline], the concentration for half-maximal inhibition (IC50) is, setting by setting: under setting [1], 1 to 10 µM; under setting [2], over 10 µM.
For the molecule `CCN(CC)CCCC(C)Nc1c2ccc(Cl)cc2nc2ccc(OC)cc12` (stereo not shown) [quinacrine, reference compound], the “Effect of Mn^2+ on potency against cGAS” value (Mn2+ at physiological concentration (200 μM)) is “significantly less potent”.
In the case of `Nc1ccc2c(-n3ccnc3)ccnc2c1` [Compound 9, 4-(1H-imidazol-1-yl)quinolin-7-amine], the IC50 under setting [2] was over 10 µM.
`Fc1ccc2c(-n3ccnc3)ccnc2c1` [Compound 8, 7-fluoro-4-(1H-imidazol-1-yl)quinoline]: the IC50 runs as follows: under setting [1], over 10 µM; under setting [2], over 10 µM.
Take `Clc1ccc2c(-n3ccnc3)cc(-c3ccccc3)nc2c1` [Compound 12, 7-chloro-4-(1H-imidazol-1-yl)-2-phenylquinoline]: the IC50 under setting [1] was in the range of 1 to 10 µM and the IC50 under setting [2] was 0.1 to 0.5 µM.
With `Brc1ccc2c(-n3ccnc3)ccnc2c1` [Compound 4, 7-bromo-4-(1H-imidazol-1-yl)quinoline], the IC50 reads like this: under setting [1], 1 to 10 µM; under setting [2], 0.1 to 0.5 µM.
With `Brc1ccc2nccc(-n3ccnc3)c2c1` [Compound 7, 6-bromo-4-(1H-imidazol-1-yl)quinoline], the IC50 was over 10 µM under setting [1] and 1 to 10 µM under setting [2].
